Consider 18 compounds from patent publication US20140018380A1, “BICYCLIC HETEROARYL COMPOUNDS AS GPR119 RECEPTOR AGONISTS” (CENTAURUS BIOPHARMA CO., LTD., priority 2011, published 2014).

Molecules are shown by their SMILES. Bounds are passed on as bounds.

The experiment addresses T1, human GPR119 (Homo sapiens, UniProt Q8TDV5).
T1 construct: host or cells: CHO cells (American Type Culture Collection)
T1 sequence (Q8TDV5 1-335): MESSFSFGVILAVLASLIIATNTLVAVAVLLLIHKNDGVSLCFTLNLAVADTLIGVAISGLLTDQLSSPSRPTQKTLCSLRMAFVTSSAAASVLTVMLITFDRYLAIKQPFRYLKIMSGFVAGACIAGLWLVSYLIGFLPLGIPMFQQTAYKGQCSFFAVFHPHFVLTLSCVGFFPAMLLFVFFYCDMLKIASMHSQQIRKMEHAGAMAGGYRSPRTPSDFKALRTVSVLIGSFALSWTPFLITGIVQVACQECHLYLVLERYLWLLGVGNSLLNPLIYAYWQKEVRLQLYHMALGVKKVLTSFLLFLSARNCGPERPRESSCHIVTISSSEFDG
As to the kind of experiment: cAMP assay (HTRF) with human GPR119 stable transfected CHO cells. Type of experiment: cell-based. Particulars: functional agonist activity; intracellular cAMP (HTRF) in human GPR119 stable transfected CHO cells, 30 min at 37° C. How it is done: Testing of Compounds of the Invention In Vitro (cAMP Assay)
The functional agonist activities of compounds of the invention were characterized using a cAMP assay with human GPR119 stable transfected Chinese hamster ovary (CHO) cells (American Type Culture Collection, Manassas Va., USA). CHO cells were stable transfected with GPR119/pcDNA3.0 (SC307189, Origene). Transfected cells were then selected and maintained in culture media containing […] geneticin. Stable clones were obtained by limiting dilution and the expression of human-GPR119 in CHO cells was confirmed by HTRF (Homogeneous Time-Resolved Fluorescence) cAMP assay. The clones generating the best agonist stimulated signal window were selected for the cAMP assay development.
The cells were cultured in Dulbecco's Modified Eagle Medium (Invitrogen Corporation, Carlsbad, Calif., USA) containing 10% Fetal bovine serum, 1% Pen/Strep and […] G418 and grown in 75 cm2 tissue culture flasks until they reached 75-80% confluence.
The cells were harvested 16 hours prior to assay with 1 ml 0.05% Trypsine, washed with PBS and then plated into 96-well plates (8000 cells/well) containing DMEM medium and 10% BSA. Prior to assay, the cells were washed with assay stimulation buffer (HBSS containing 10 mM IBMX, 20 mM HEPES, 0.1% BSA) twice. Then cells were incubated for 30 min at 37° C. in the absence or presence of varying concentrations of agonists (i.e., the compounds of the present invention) in assay stimulating buffer with 0.1% DMSO. The intracellular levels of cAMP generated in the GPR119 transfected CHO cells were measured using the HTRF kit (CisBio, FR.). In brief, 20 ul d2-labeled cAMP and 20 ul cryptated labeled anti-cAMP antibody were added into 40 ul cells treated with agonist and the plates were incubated for 1 hour at room temperature in the dark. Cells were then transferred into white 96-well plate and the signal generated was measured using Envision (Perkin-Elmer, Norwalk, Conn.). EC50 values were calculated using the GraphPad Prism 5 program.
On the technique in general: Changes in cAMP serve as a functional read-out for many G protein-coupled receptors.

As to `CCc1cnc(N2CCC(n3ncc4cc(-c5ccc(S(C)(=O)=O)cc5)c(F)cc43)CC2)nc1` [Example 18, 1-(1-(5-ethylpyrimidin-2-yl)piperidin-4-yl)-6-fluoro-5-(4-(methylsulfonyl)phenyl)-1H-indazole], the EC50 was below 200 nM.

Consider `CCc1cnc(N2CCC(n3ccc4cc(-c5ccc(C#N)cc5)c(F)cc43)CC2)nc1` [Example 14, 4-(1-(1-(5-ethylpyrimidin-2-yl)piperidin-4-yl)-6-fluoro-1H-indol-5-yl)benzonitrile], for which the concentration for a half-maximal effect (EC50) is below 500 nM.

As to `CC(C)(C)OC(=O)N1CCC(n2ccc3cc(-c4ccc(S(C)(=O)=O)cc4)ccc32)CC1` [Example 10, tert-butyl 4-(5-(4-(methylsulfonyl)phenyl)-1H-indol-1-yl)piperidine-1-carboxylate], the EC50 was below 200 nM.

As for `CCc1cnc(N2CCC(n3cc(C)c4cc(-c5ccc(S(C)(=O)=O)cc5)ccc43)CC2)nc1` [Example 5, 1-(1-(5-ethylpyrimidin-2-yl)piperidin-4-yl)-3-methyl-5-(4-(methylsulfone)phenyl)-1H-indole], the EC50 was below 1000 nM.

For `CCc1cnc(N2CCC(n3ccc4cc(-c5ccc(C#N)c(F)c5)c(F)cc43)CC2)nc1` [Example 13, 4-(1-(1-(5-ethylpyrimidin-2-yl)piperidin-4-yl)-6-fluoro-1H-indol-5-yl)-2-fluorobenzonitrile], the EC50 was below 500 nM.

For `CCc1cnc(N2CCC(n3ccc4cc(-c5ccc(-n6cnnn6)cc5)ccc43)CC2)nc1` [Example 3, 5-(4-(1H-tetrazol-1-yl)phenyl)-1-(1-(5-ethylpyrimidin-2-yl)piperidin-4-yl)-1H-indole], the 50% effective concentration (EC50) is below 300 nM.

Consider `CCc1cnc(N2CCC(n3ccc4cc(-c5ccc(S(C)(=O)=O)cc5)c(F)cc43)CC2)nc1` [Example 6, 1-(1-(5-ethylpyrimidin-2-yl)piperidin-4-yl)-6-fluoro-5-(4-(methylsulfony)phenyl)-1H-indole], for which the EC50 is below 100 nM.

The compound `CC(C)c1noc(N2CCC(n3ccc4cc(-c5ccc(S(C)(=O)=O)cc5)c(F)cc43)CC2)n1` [Example 19, 5-(4-(6-fluoro-5-(4-(methylsulfonyl)phenyl)-1H-indol-1-yl)piperidin-1-yl)-3-isopropyl-1,2,4-oxadiazole] came in with an EC50 below 100 nM.

For `CCc1cnc(N2CCC(n3ccc4cc(-c5ccc(S(C)(=O)=O)cc5)ccc43)CC2)nc1` [Example 1, 1-(1-(5-ethylpyrimidin-2-yl)piperidin-4-yl)-5-(4-(methylsulfonyl)phenyl)-1H-indole], the EC50 was below 300 nM.

Compound `CCc1cnc(N2CCC(n3nnc4cc(-c5ccc(-n6cnnn6)cc5)cnc43)CC2)nc1` [Example 2, 6-(4-(1H-tetrazol-1-yl)phenyl)-3-(1-(5-ethylpyrimidin-2-yl)piperidin-4-yl)-3H-[1,2,3]triazol o[4,5-b]pyridine] yielded an EC50 below 500 nM.

As for `CCc1cnc(N2CCC(n3ncc4cc(-c5ccc(-n6cnnn6)cc5)c(F)cc43)CC2)nc1` [Example 17, 5-(4-(1H-tetrazol-1-yl)phenyl)-1-(1-(5-ethylpyrimidin-2-yl)piperidin-4-yl)-6-fluoro-1H-indazole], the EC50 is below 50 nM.

As for `CCc1cnc(N2CCC(n3ccc4cc(-c5ccc(S(C)(=O)=O)cc5)ncc43)CC2)nc1` [Example 9, 1-(1-(5-ethylpyrimidin-2-yl)piperidin-4-yl)-5-(4-(methylsulfonyl)phenyl)-1H-pyrrolo[2,3-c]pyridine], the EC50 is below 200 nM.

The compound `CC(C)(C)OC(=O)N1CCC(n2ccc3cc(-c4ccc(S(C)(=O)=O)cc4)c(F)cc32)CC1` [Example 7, tert-butyl 4-(6-fluoro-5-(4-(methylsulfonyl)phenyl)-1H-indol-1-yl)piperidine-1-carboxylate] returned an EC50 below 100 nM.

On to `CCc1cnc(N2CCC(n3ccc4cc(-c5ccc(S(C)(=O)=O)cc5F)ccc43)CC2)nc1` [Example 11, 1-(1-(5-ethylpyrimidin-2-yl)piperidin-4-yl)-5-(2-fluoro-4-(methylsulfony)phenyl)-1H-indole], for which the EC50 was below 500 nM.

Consider `CCc1cnc(N2CCC(n3ccc4cc(-c5ccc(-n6cnnn6)cc5)c(F)cc43)CC2)nc1` [Example 12, 5-(4-(1H-tetrazol-1-yl)phenyl)-1-(1-(5-ethylpyrimidin-2-yl)piperidin-4-yl)-6-fluoro-1H-indole], for which the EC50 was below 2000 nM.

Compound `CC(C)(C)OC(=O)N1CCC(n2ncc3cc(-c4ccc(S(C)(=O)=O)cc4)ccc32)CC1` [Example 16, tert-butyl 4-(5-(4-(methylsulfonyl)phenyl)-1H-indazol-1-yl)piperidine-1-carboxylate] yielded a concentration for a half-maximal effect (EC50) below 300 nM.

In the case of `CCc1cnc(N2CCC(n3cc(Cl)c4cc(-c5ccc(S(C)(=O)=O)cc5)ccc43)CC2)nc1` [Example 8, 3-chloro-1-(1-(5-ethylpyrimidin-2-yl)piperidin-4-yl)-5-(4-(methylsulfonl)phenyl)-1H-indole], the EC50 is below 500 nM.

Turning to `CCc1cnc(N2CCC(n3ccc4cc(-c5ccc(NS(C)(=O)=O)cc5)c(F)cc43)CC2)nc1` [Example 15, N-(4-(1-(1-(5-ethylpyrimidin-2-yl)piperidin-4-yl)-6-fluoro-1H-indol-5-yl)phenyl)methanesulfonamide], the EC50 is below 1000 nM.

By EC50 is commonly meant the midpoint of the concentration-response curve.
